{"source": "patent US9856196B2", "about": "“Agent for reduction of sensory irritation” (Kao Corporation, priority 2012, dated 2018)", "key": {"[1]": {"molecular_target": "human TRPA1 (Homo sapiens, UniProt O75762)", "sequence (O75762 whole entry)": "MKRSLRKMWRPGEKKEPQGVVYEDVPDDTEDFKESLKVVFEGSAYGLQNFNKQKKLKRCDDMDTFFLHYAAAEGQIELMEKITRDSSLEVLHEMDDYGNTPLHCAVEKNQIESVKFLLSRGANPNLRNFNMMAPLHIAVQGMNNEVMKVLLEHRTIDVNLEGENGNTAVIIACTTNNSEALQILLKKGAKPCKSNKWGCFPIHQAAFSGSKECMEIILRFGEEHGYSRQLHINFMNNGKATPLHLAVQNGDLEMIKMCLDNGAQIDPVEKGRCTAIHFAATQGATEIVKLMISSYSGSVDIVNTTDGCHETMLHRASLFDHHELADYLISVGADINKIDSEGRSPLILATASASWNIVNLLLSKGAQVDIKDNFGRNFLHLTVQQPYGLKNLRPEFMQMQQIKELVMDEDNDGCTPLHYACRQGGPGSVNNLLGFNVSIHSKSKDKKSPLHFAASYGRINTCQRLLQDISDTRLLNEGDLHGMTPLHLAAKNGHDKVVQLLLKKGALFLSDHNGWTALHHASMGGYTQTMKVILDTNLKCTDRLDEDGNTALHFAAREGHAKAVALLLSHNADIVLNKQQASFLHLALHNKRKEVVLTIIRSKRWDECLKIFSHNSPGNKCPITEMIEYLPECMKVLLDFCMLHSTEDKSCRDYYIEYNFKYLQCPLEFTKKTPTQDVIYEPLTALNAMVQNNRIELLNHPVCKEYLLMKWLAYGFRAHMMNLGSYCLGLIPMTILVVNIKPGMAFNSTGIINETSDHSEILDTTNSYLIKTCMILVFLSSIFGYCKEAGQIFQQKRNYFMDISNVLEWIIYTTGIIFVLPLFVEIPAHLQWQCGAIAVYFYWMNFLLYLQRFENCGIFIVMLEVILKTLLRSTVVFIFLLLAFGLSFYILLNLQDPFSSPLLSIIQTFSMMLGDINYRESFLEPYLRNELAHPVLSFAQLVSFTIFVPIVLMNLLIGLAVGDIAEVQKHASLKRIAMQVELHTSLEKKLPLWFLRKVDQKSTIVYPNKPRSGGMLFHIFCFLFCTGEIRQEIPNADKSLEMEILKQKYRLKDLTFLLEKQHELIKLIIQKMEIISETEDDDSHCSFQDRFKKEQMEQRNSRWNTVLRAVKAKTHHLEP", "experiment": "Calcium imaging of TRPA1 activation in human TRPA1 stably expressing HEK293 cells", "settings": "for TRPA1 activation caused by antiseptics and antiseptic aids: phenoxyethanol 20 to 30 mM, IPBC 0.03 to 0.1 mM, triclosan 0.1 to 0.3 mM, benzyl alcohol 20 to 30 mM, FIG. 3", "source_text": "(1) Preparation of Human TRPA1 Stably Expressing Cell Line\nThe human TRPA1 gene of which the full length is inserted into pENTR223.1 was purchased from Open Biosystems. The TRPA1 gene was sub-cloned into an expression vector pcDNA3.2-V5/DEST (Invitrogen) and transfected into HEK293 cells using Lipofectamine 2000 (Invitrogen).\n(3) Evaluation of the Inhibitory Effect on TRPA1 Activation Caused by AITC"}, "[2]": {"experiment": "Inhibitory effect on irritating odor (ammonia odor, panel evaluation)", "assay_type": "in vivo", "settings": "for ammonia odor (irritating odor) score, average: 7-stage scale 0 to 6", "protocol": "Ammonia was volatilized and saturated by putting a cotton ball impregnated with a 28% ammonia water (20 μl) in a 50 ml syringe for 12 hours or more. The intensity of ammonia odor (irritating odor) was evaluated using a 7-stage scale (0 to 6). Comparative evaluation was carried out without sniffing the test perfume.\n(2) Evaluation scale 0; No irritating odor, 1; very faint, 2: faint, 3; easily noticeable, 4; strong, 5; very strong, 6; extremely strong"}, "[3]": {"tested_on": "human skin", "experiment": "Sensory irritation property to antiseptic on human skin (discomfort score, sensitive women)", "assay_type": "in vivo", "settings": "antiseptic solution (0.2% methylparaben + 0.35% phenoxyethanol) + 0.05% Compound 1 on face, versus antiseptic solution alone; maximum score, scale 0.0-3.0; FIG. 4", "protocol": "(1) Selection of Test Subjects\nTo evaluate the skin sensory irritation, 22 women (age 20 to 59) having high sensitivity (1% lactic acid-sensitive, low current perception threshold and sensitive skin conscious with medical history of allergic disease) were selected as the subjects.\n(2) Evaluation of Sensory Irritation Property to Antiseptic\nAfter washing the face, the subjects entered a constant temperature-humidity room (room temperature 20° C., humidity about 50%) and were acclimated for 20 minutes, followed by applying 300 ill of distilled water heated to 37° C. in one side of the face from the cheek to the nose. 1, 2.5, 5 and 8 minutes after the application, the degree (intensity) of unpleasant sensation (pain) reported in accordance with the following unpleasant sensation reference values was notated.\n0.0; None or pleasant sensation\n0.5; Slight discomfort barely detectable\n1.0; Mild discomfort, detectable sensation but tolerable\n1.5; Mild to moderate discomfort\n2.0; Moderate discomfort, unpleasant feeling but tolerable\n2.5; Moderate to severe discomfort\n3.0; Severe discomfort, intense unpleasant feeling\nThe distilled water was wiped off 8 minutes later, 300 μl of an antiseptic solution (0.2% methylparaben (MP)+0.35% phenoxyethanol (Phe) aqueous solution) was applied to the same part to notate the degrees of unpleasant sensation in the same manner. […]"}, "[4]": {"settings": "HEK293, read-out: Ratio for TRPA1 inhibition (%), 10 μM AITC, test material 100 μM"}, "[5]": {"settings": "HEK293, read-out: Ratio for TRPA1 inhibition (%), 5.0 μM AITC, test material 100 μM"}}, "note": "Like-named read-outs stand apart in the source and are kept apart here.", "data": [{"molecule": "CC(CCCO)c1ccccc1", "note": "(stereo not drawn) [Comparative Compound 1, 4-phenyl-1-pentanol, reference compound]", "values": [{"measurement": "inhibition at 100 µM", "setting": "[1]; [4]", "result": 0, "unit": "%"}]}, {"molecule": "OCCCCc1ccccc1", "note": "[Comparative Compound 2, 4-phenyl-1-butanol, reference compound]", "values": [{"measurement": "inhibition at 100 µM", "setting": "[1]; [5]", "result": 0, "unit": "%"}, {"measurement": "inhibition at 100 µM", "setting": "[1]; [4]", "result": 0.8, "unit": "%"}]}, {"molecule": "CC(CO)CC(C)c1ccccc1", "note": "(stereo not drawn) [Compound 1, 2-methyl-4-phenyl-1-pentanol]", "values": [{"measurement": "ammonia odor (irritating odor) score, average", "setting": "[2]; 1 minute later", "result": 2}, {"measurement": "ammonia odor (irritating odor) score, average", "setting": "[2]; 2 minutes later", "result": 2}, {"measurement": "ammonia odor (irritating odor) score, average", "setting": "[2]; 5 minutes later", "result": 2}, {"measurement": "ammonia odor (irritating odor) score, average", "setting": "[2]; 6 minutes later", "result": 3}, {"measurement": "ammonia odor (irritating odor) score, average", "setting": "[2]; 10 minutes later", "result": 3}, {"measurement": "ammonia odor (irritating odor) score, average", "setting": "[2]; Immediately after inhalation of test perfume, five panelists", "result": 1}, {"measurement": "time the ammonia odor reducing effect was maintained after the inhalation", "setting": "[2]; after 1 minute sniffing of test perfume", "result": 5, "unit": "min"}, {"measurement": "discomfort (pain) score", "setting": "[3]", "result": "reduced"}]}, {"molecule": "CCC(C=C(C)CO)c1ccccc1", "note": "(stereo not drawn) [Compound 5, 2-methyl-4-phenyl-2-hexen-1-ol]", "values": [{"measurement": "inhibition at 100 µM", "setting": "[1]; [5]", "result": 83.4, "unit": "%"}, {"measurement": "inhibition at 100 µM", "setting": "[1]; [4]", "result": 27.6, "unit": "%"}]}, {"molecule": "CCC(CC(C)CO)c1ccccc1", "note": "(stereo not drawn) [Compound 6, 2-methyl-4-phenyl-1-hexanol]", "values": [{"measurement": "inhibition at 100 µM", "setting": "[1]; [5]", "result": 18.7, "unit": "%"}, {"measurement": "inhibition at 100 µM", "setting": "[1]; [4]", "result": 9.7, "unit": "%"}]}, {"molecule": "CC/C(=C\\C(CC)c1ccccc1)CO", "note": "(stereo not drawn) [Compound 7, (E)-2-ethyl-4-phenyl-2-hexen-1-ol]", "values": [{"measurement": "IC50", "setting": "[1]", "result": 3.4, "unit": "µM"}, {"measurement": "inhibition at 100 µM", "setting": "[1]; [5]", "result": 103, "unit": "%"}, {"measurement": "inhibition at 100 µM", "setting": "[1]; [4]", "result": 102, "unit": "%"}]}, {"molecule": "CC/C(=C/C(CC)c1ccccc1)CO", "note": "(stereo not drawn) [Compound 8, (Z)-2-ethyl-4-phenyl-2-hexen-1-ol]", "values": [{"measurement": "IC50", "setting": "[1]", "result": 2, "unit": "µM"}, {"measurement": "inhibition at 100 µM", "setting": "[1]; [5]", "result": 102, "unit": "%"}, {"measurement": "inhibition at 100 µM", "setting": "[1]; [4]", "result": 101, "unit": "%"}]}, {"molecule": "CC(CO)C(C)Cc1ccccc1", "note": "(stereo not drawn) [Compound 9, 2,3-dimethyl-4-phenyl-1-butanol]", "values": [{"measurement": "inhibition at 100 µM", "setting": "[1]; [5]", "result": 89.5, "unit": "%"}, {"measurement": "inhibition at 100 µM", "setting": "[1]; [4]", "result": 51.7, "unit": "%"}]}, {"molecule": "C/C(=C\\C(C)c1ccccc1)CO", "note": "(stereo not drawn) [Compound 10, (E)-2-methyl-4-phenyl-2-penten-1-ol]", "values": [{"measurement": "IC50", "setting": "[1]", "result": 32.5, "unit": "µM"}, {"measurement": "inhibition at 100 µM", "setting": "[1]; [5]", "result": 92.9, "unit": "%"}, {"measurement": "inhibition at 100 µM", "setting": "[1]; [4]", "result": 31.8, "unit": "%"}]}, {"molecule": "CC(CO)CCc1ccccc1", "note": "(stereo not drawn) [Compound 11, 2-methyl-4-phenyl-1-butanol]", "values": [{"measurement": "inhibition at 100 µM", "setting": "[1]; [5]", "result": 19.5, "unit": "%"}, {"measurement": "inhibition at 100 µM", "setting": "[1]; [4]", "result": 3.9, "unit": "%"}]}, {"molecule": "CC(CC(C)C(C)O)c1ccccc1", "note": "(stereo not drawn) [Compound 12, 3-methyl-5-phenyl-2-hexanol]", "values": [{"measurement": "inhibition at 100 µM", "setting": "[1]; [5]", "result": 54.9, "unit": "%"}, {"measurement": "inhibition at 100 µM", "setting": "[1]; [4]", "result": 27.1, "unit": "%"}]}, {"molecule": "OCc1ccccc1", "note": "[benzyl alcohol, reference compound]", "values": [{"measurement": "TRPA1 activation caused by antiseptics and antiseptic aids", "setting": "[1]", "result": "activate TRPA1 in a dose dependent manner"}]}, {"molecule": "Oc1cc(Cl)ccc1Oc1ccc(Cl)cc1Cl", "note": "[triclosan, reference compound]", "values": [{"measurement": "TRPA1 activation caused by antiseptics and antiseptic aids", "setting": "[1]", "result": "activate TRPA1 in a dose dependent manner"}]}, {"molecule": "d-camphor [reference compound]", "values": [{"measurement": "Ratio for TRPA1 inhibition (%)", "setting": "[1]; 5.0 μM AITC, test material 100 μM", "result": 1.8, "unit": "%"}, {"measurement": "Ratio for TRPA1 inhibition (%)", "setting": "[1]; 5.0 μM AITC, test material 500 μM", "result": 27.8, "unit": "%"}, {"measurement": "Ratio for TRPA1 inhibition (%)", "setting": "[1]; 10 μM AITC, test material 100 μM", "result": 0.0, "unit": "%"}, {"measurement": "Ratio for TRPA1 inhibition (%)", "setting": "[1]; 10 μM AITC, test material 500 μM", "result": 15.1, "unit": "%"}, {"measurement": "Ratio for TRPA1 inhibition (%)", "setting": "[1]; 30 μM AITC, test material 0.01%", "result": 6.9, "unit": "%"}, {"measurement": "Ratio for TRPA1 inhibition (%)", "setting": "[1]; 30 μM AITC, test material 0.03%", "result": 89.7, "unit": "%"}, {"measurement": "Ratio for TRPA1 inhibition (%)", "setting": "[1]; stimulant Benzyl alcohol 20 mM, test material 0.5 mM", "result": "−0.89", "unit": "%"}, {"measurement": "Ratio for TRPA1 inhibition (%)", "setting": "[1]; stimulant IPBC 0.03 mM, test material 0.5 mM", "result": 32.40, "unit": "%"}, {"measurement": "Ratio for TRPA1 inhibition (%)", "setting": "[1]; stimulant Phenoxyethanol 20 mM, test material 0.5 mM", "result": 13.96, "unit": "%"}, {"measurement": "Ratio for TRPA1 inhibition (%)", "setting": "[1]; stimulant Triclosan 0.1 mM, test material 0.5 mM", "result": 27.45, "unit": "%"}]}]}
